# Test results from patent US10537575B2, “Phosphodiesterase inhibitors to repair brain and/or retinal injury in human newborns” (priority 2016, dated 2020).
# What was measured:
# Format in all cases: in vivo
# [1] = system: Long-Evans rat pups (term neonatal HIE model); assay: Retinal histology, thicknesses of retinal layers at P30; design: Effect size, RPE thickness / Effect size, OS thickness / Effect size, IS thickness / Effect size, ONL thickness / Effect size, OPL thickness / Effect size, INL thickness / Effect size, IPL thickness / Effect size, total thickness: scale not given here; settings: for Effect size, INL thickness / Effect size, IPL thickness / Effect size, IS thickness / Effect size, ONL thickness / Effect size, OPL thickness / Effect size, OS thickness / Effect size, RGC/FL thickness / Effect size, RPE thickness / Effect size, total thickness: compared to HI vehicle rat pups; for INL thickness / IPL thickness / IS thickness / ONL thickness / OPL thickness / OS thickness (outer segment) / RGC/FL thickness / RPE thickness / Total thickness: left eye, P30
# Description: A well-established rat model of term neonatal HIE (Vannucci model) (Patel S D et al., 2014, Patel S D et al., 2015; […] et al., 2009; […] et al., 2009; Rice J E, 3rd et al., 1981) and produces concomitant retinal injury (Jung S et al., 2015). Rats undergoing both the ligation and hypoxia were considered the HI group. Sham operated rats (identical procedure as the HI group, but without ligation and hypoxia) served as the control group. […] Different doses of sildenafil-i.e., low (2 mg/kg), medium (10 mg/kg), and high (50 mg/kg)-were used in the HI and sham rat pups (n=4-7 animals/group). At P30, the animals were sacrificed, and the eyes were enucleated. Retinal histology was performed as per a previously described protocol (Jung S et al., 2015). […] Then, the retinal layer thickness was plotted against eccentricity to obtain the spider graphs (FIG. 7B).
# [2] = system: Long-Evans rat pups (term neonatal HIE model); assay: Microvessel density (collagen IV staining) at P30; settings: HI, sildenafil 50 mg/kg, p<0.01
# Description: In addition, using the fourth slide prepared for each animal, an immunohistochemistry with collagen IV staining also was used to assess microvessel density. Sections were labeled with an anti-collagen type IV antibody (EMD Millipore: AB769, Temecula, Calif., USA) (dilution 1:400, incubation time overnight at room temperature) (Tong X K et al., 2005). Then, these sections were incubated with the secondary antibody CyTM3-conjugated AffiniPure donkey anti-goat IgG (Cedarlane: 705-165-147, West Grove, Pa., USA) (dilution 1:400, incubation time 1 hour at room temperature). These sections were rinsed with tris-buffered saline and cover slipped with Vectashield Mounting media containing 4,6-diamidino-2-phenylindole (DAPI) (Vector Laboratories: H1200, Burlingame, Calif., USA) to visualize cell nuclei. To estimate microvessel density, single-layer immunoreactive blood vessels in all orientations were counted as individual microvessels. Collagen IV staining in large vessels with tunica media were disregarded in the microvessel counts (Hallene K L et al., 2006, Iwai M et al., 2007; Noguchi T et al., 2008; Rigau V et al., 2007; Wintermark P et al., 2013; Shaikh H et al., 2015). […] One investigator took pictures of the respective fields of view at 10× magnification.
# [3] = system: Long-Evans rat pups (neonatal HI); assay: White matter myelination, oligodendrocytes and neuroinflammation after neonatal HI; settings: P30
# Description: Neonatal HI was induced in male Long-Evans rat pups at postnatal day 10 (P10) by left common carotid ligation followed by 2-hour exposure to 8% oxygen. Sham operated rat pups served as control. […] At P30, rats were sacrificed and their brains extracted. Hematoxylin and eosin staining was performed to analyze the structure of the myelin sheath. Olig2 and CC-1 immunostaining were performed to assess the proportion of mature oligodendrocyte to total oligodendrocytes. GFAP, Iba1, and Mac2 immunostaining was used to label reactive astrocytes and activated microglia. Collagen IV was used to investigate microvessels. Corpus callosum and left external capsule were the 2 regions where these markers were assessed to evaluate “white matter”.
# [4] = system: Sprague-Dawley rats (rat model of ROP); assay: Flash electroretinograms in rat model of ROP (hyperoxia); settings: sildenafil 50 mg/kg per os twice daily P15 to P21, P29, p<0.05
# Description: Sprague-Dawley rats were exposed to hyperoxia (i.e., 80% oxygen) interrupted by three 0.5-hour periods of normoxia (i.e., 21% oxygen) per day or room air only (i.e., 21% oxygen) from post-natal day 4 (P4) to 14 (P14). Pups were then housed in room air. […] Flash electroretinograms were recorded at P29 to assess the retinal function. At P31, retinas were extracted, sectioned and stained with toluidine blue to measure the thicknesses of the different retinal layers.
# [5] = system: Long-Evans rat pups (neonatal HI); assay: Cerebellum injury after neonatal HI; settings: P30
# Description: Neonatal HI was induced in male Long-Evans rat pups at postnatal day 10 (P10) by left common carotid ligation followed by a 2-hour exposure to 8% oxygen; sham operated rat pups served as the control. […] At P30, the rats were sacrificed, and the cerebellum was extracted. The internal granular layers and molecular layers of the cerebellum were measured across all groups on cresyl violet-stained cerebellum sections. Astrocytes expressing Vascular Endothelial Growth Factor (VEGF) in the internal granular layers and molecular layers were quantified using immunohistochemistry.
smiles,measurement,setting,value
CCCc1nn(C)c2c(=O)[nH]c(-c3cc(S(=O)(=O)N4CCN(C)CC4)ccc3OCC)nc12 [sildenafil],"thicknesses of affected retinal layers, response","[1]; HI, 10 mg/kg and 50 mg/kg doses",significantly improved response in terms of thicknesses of all the affected layers
same,"Effect size, INL thickness","[1]; HI, Sild 2 mg/kg",4.94
same,"Effect size, IPL thickness","[1]; HI, Sild 2 mg/kg",0.11
same,"Effect size, IS thickness","[1]; HI, Sild 2 mg/kg",2.16
same,"Effect size, ONL thickness","[1]; HI, Sild 2 mg/kg",0.71
same,"Effect size, OPL thickness","[1]; HI, Sild 2 mg/kg",4.91
same,"Effect size, OS thickness","[1]; HI, Sild 2 mg/kg",0.40
same,"Effect size, RGC/FL thickness","[1]; HI, Sild 2 mg/kg",1.37
same,"Effect size, RPE thickness","[1]; HI, Sild 2 mg/kg",0.25
same,"Effect size, total thickness","[1]; HI, Sild 2 mg/kg",14.72
same,"Effect size, INL thickness","[1]; HI, Sild 10 mg/kg",19.74
same,"Effect size, IPL thickness","[1]; HI, Sild 10 mg/kg",42.08
same,"Effect size, IS thickness","[1]; HI, Sild 10 mg/kg",−7.24
same,"Effect size, ONL thickness","[1]; HI, Sild 10 mg/kg",−19.22
same,"Effect size, OPL thickness","[1]; HI, Sild 10 mg/kg",8.67
same,"Effect size, OS thickness","[1]; HI, Sild 10 mg/kg",−8.55
same,"Effect size, RGC/FL thickness","[1]; HI, Sild 10 mg/kg",18.37
same,"Effect size, RPE thickness","[1]; HI, Sild 10 mg/kg",−0.73
same,"Effect size, total thickness","[1]; HI, Sild 10 mg/kg",53.09
same,"Effect size, INL thickness","[1]; HI, Sild 50 mg/kg",21.65
same,"Effect size, IPL thickness","[1]; HI, Sild 50 mg/kg",41.40
same,"Effect size, IS thickness","[1]; HI, Sild 50 mg/kg",−7.50
same,"Effect size, ONL thickness","[1]; HI, Sild 50 mg/kg",−17.36
same,"Effect size, OPL thickness","[1]; HI, Sild 50 mg/kg",8.95
same,"Effect size, OS thickness","[1]; HI, Sild 50 mg/kg",−9.86
same,"Effect size, RGC/FL thickness","[1]; HI, Sild 50 mg/kg",16.59
same,"Effect size, RPE thickness","[1]; HI, Sild 50 mg/kg",−0.59
same,"Effect size, total thickness","[1]; HI, Sild 50 mg/kg",53.25
same,topographic retinal thickness (spider graph),"[1]; HI, low-dose of sildenafil","did not seem to reverse any of the HI-induced changes in retinal thickness, except in the inferior retina"
same,topographic retinal thickness (spider graph),"[1]; HI, medium and high doses of sildenafil",nearly normal inner retina at almost all retinal eccentricities
same,INL thickness,"[1]; HI, Sild 2 mg/kg",14.71 ± 2.57 μm
same,IPL thickness,"[1]; HI, Sild 2 mg/kg",2.95 ± 2.60 μm
same,IS thickness,"[1]; HI, Sild 2 mg/kg",23.83 ± 3.12 μm
same,ONL thickness,"[1]; HI, Sild 2 mg/kg",70.88 ± 2.88 μm
same,OPL thickness,"[1]; HI, Sild 2 mg/kg",5.72 ± 3.05 μm
same,OS thickness (outer segment),"[1]; HI, Sild 2 mg/kg",38.14 ± 3.66 μm
same,RGC/FL thickness,"[1]; HI, Sild 2 mg/kg",2.28 ± 2.28 μm
same,RPE thickness,"[1]; HI, Sild 2 mg/kg",8.88 ± 0.24 μm
same,Total thickness,"[1]; HI, Sild 2 mg/kg",167.28 ± 2.63 μm
same,INL thickness,"[1]; HI, Sild 10 mg/kg",29.50 ± 1.70 μm
same,IPL thickness,"[1]; HI, Sild 10 mg/kg",44.93 ± 7.35 μm
same,IS thickness,"[1]; HI, Sild 10 mg/kg",14.43 ± 1.15 μm
same,ONL thickness,"[1]; HI, Sild 10 mg/kg",50.95 ± 0.76 μm
same,OPL thickness,"[1]; HI, Sild 10 mg/kg",9.48 ± 0.38 μm
same,OS thickness (outer segment),"[1]; HI, Sild 10 mg/kg",29.18 ± 2.14 μm
same,RGC/FL thickness,"[1]; HI, Sild 10 mg/kg",19.28 ± 3.36 μm
same,RPE thickness,"[1]; HI, Sild 10 mg/kg",7.89 ± 0.35 μm
same,Total thickness,"[1]; HI, Sild 10 mg/kg",205.64 ± 14.20 μm
same,INL thickness,"[1]; HI, Sild 50 mg/kg",31.42 ± 1.66 μm
same,IPL thickness,"[1]; HI, Sild 50 mg/kg",44.25 ± 11.86 μm
same,IS thickness,"[1]; HI, Sild 50 mg/kg",14.16 ± 0.25 μm
same,ONL thickness,"[1]; HI, Sild 50 mg/kg",52.81 ± 1.06 μm
same,OPL thickness,"[1]; HI, Sild 50 mg/kg",9.76 ± 0.84 μm
same,OS thickness (outer segment),"[1]; HI, Sild 50 mg/kg",27.87 ± 2.09 μm
same,RGC/FL thickness,"[1]; HI, Sild 50 mg/kg",17.50 ± 4.07 μm
same,RPE thickness,"[1]; HI, Sild 50 mg/kg",8.03 ± 0.27 μm
same,Total thickness,"[1]; HI, Sild 50 mg/kg",205.80 ± 14.22 μm
same,photoreceptor degeneration,[1]; present example (rat pups),did not induce photoreceptor degeneration
same,"microvessel density near the infarct boundary zone, median (IQR)",[2],211 (182; 221)
same,myelin sheath thickness in corpus callosum and left external capsule,"[3]; HI, all dosage",reverted the myelin sheath thickness back to levels comparable to sham vehicle rat animals
same,microvessel density in the white matter,[3],no changes
same,number of total and mature oligodendrocytes in the left external capsule,[3]; after sildenafil,no changes
same,reactive astrocytosis and microgliosis in the corpus callosum and left external capsule,[3]; higher doses of sildenafil,significant reduction
same,number of mature oligodendrocytes in the corpus callosum,[3]; sildenafil 50 mg/kg,significantly increased
same,number of total oligodendrocytes in the corpus callosum,[3]; sildenafil 50 mg/kg,significantly increased
same,scotopic and photopic b-wave amplitudes,[4],improvement in scotopic and photopic b-wave amplitudes
same,thickness of internal granular layers and molecular layers of the cerebellum,"[5]; oral sildenafil 2, 10 or 50 mg/kg twice daily 7 days",improvement in the overall thickness of these layers
same,VEGF expressing astrocytes in cerebellum,[5]; oral sildenafil,reduction of VEGF expressing astrocytes
